Laboratory results from patent US6706663B2, “Herbicidal 3-heterocyclic substituted benzisothiazole and benzisoxazole compounds” (Wyeth, priority 2000, dated 2004).

Columns and labels:
[1] = tested on: SAGPY (Sagittaria pygmaea); test: Flooded paddy, postemergence weed control; format: in vivo, L.; conditions: postemergence weeds, rated 3-4 weeks after treatment
In short: (§1)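 Herbicidal effect was judged visually against a control on a 0-9 scale covering stand, vigor, malformation, size and chlorosis, three to four weeks after compound was applied into paddy flood water at about 0.0320 to 0.2500 kg/ha.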

[2] = tested on: GALAP (Galium aparine); test: Preemergence herbicidal evaluation; format: in vivo; conditions: preemergence, rated 4-5 weeks after treatment
In short: (§2)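 Preemergence soil spray, aq. acetone; greenhouse; visual 0–9 score vs control at 4–5 wk.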

[3] = tested on: ABUTH (Abutilon theophrasti); test: Preemergence herbicidal evaluation; format: in vivo, Medic.; conditions: preemergence, rated 4-5 weeks after treatment
[4] = tested on: CYPSE (Cyperus serotinus); test: Flooded paddy, preemergence weed control; format: in vivo, Rottb.; conditions: rated 3-4 weeks after treatment, 0-9 rating scale
In short: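 Seeds or propagules were planted 0.5 cm deep in silt loam and flooded to 1.5–3 cm. Compounds in 50/50 v/v aqueous/acetone were pipetted into the flood water at about 0.0080 to 0.1250 kg/ha. After 3–4 weeks in the greenhouse, effect was rated visually on a 0–9 scale versus untreated control.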

[5] = tested on: ZEAMX (Corn, Field); test: Preemergence herbicidal evaluation; format: in vivo, Zea mays, L.; conditions: preemergence, rated 4-5 weeks after treatment
[6] = tested on: TRZAWR (Wheat, Winter, cv Riband); test: Preemergence herbicidal evaluation; format: in vivo, Triticum aestivum; conditions: preemergence, rated 4-5 weeks after treatment
In short: as §2

[7] = tested on: CYPIR (Cyperus iria); test: Flooded paddy, postemergence weed control; format: in vivo; conditions: postemergence weeds, rated 3-4 weeks after treatment
In short: as §1

[8] = tested on: CYPSE (Cyperus serotinus); test: Flooded paddy, postemergence weed control; format: in vivo, Rottb.; conditions: postemergence weeds, rated 3-4 weeks after treatment
In short: as §1

[9] = tested on: ORYSAT (Rice, Tebonnet); test: Flooded paddy, post-transplant and postemergence rice tolerance; format: in vivo, Oryza sativa, (L.) Tebonnet; conditions: post-transplant rice, rated 3-4 weeks after treatment
In short: as §1

[10] = tested on: GLXMAW (Soybean, Williams); test: Preemergence herbicidal evaluation; format: in vivo, Glycine max, (L.) Merr. cv Williams; conditions: preemergence, rated 4-5 weeks after treatment
[11] = tested on: ECHORC (Echinochloa oryzoides); test: Flooded paddy, postemergence weed control; format: in vivo, Echinochloa oryzoides (Ard.) Fritsch.; conditions: postemergence weeds, rated 3-4 weeks after treatment
In short: as §1

[12] = tested on: TRZAWR (Wheat, Winter, cv Riband); test: Postemergence herbicidal evaluation; format: in vivo, Triticum aestivum
In short: (§3)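 Visual 0–9 injury scores versus control plants, covering stand, vigour, malformation, size, chlorosis and general appearance, taken four to five weeks post-spray and averaged over replicate tests. Plants were sprayed at roughly two weeks old and held on greenhouse benches.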

[13] = tested on: MOOVA (Monochoria vaginalis); test: Flooded paddy, postemergence weed control; format: in vivo, Presl.; conditions: postemergence weeds, rated 3-4 weeks after treatment
In short: as §1

[14] = tested on: AMBEL (Ambrosia artemisifolia); test: Postemergence herbicidal evaluation; format: in vivo, L.
In short: as §3

[15] = tested on: CHEAL (Chenopodium album); test: Postemergence herbicidal evaluation; format: in vivo, L.
In short: as §3

[16] = tested on: CASOB (Cassia obtusifolia); test: Postemergence herbicidal evaluation; format: in vivo, L.
In short: as §3

## Cc1cscc1-c1nsc2ccc(-n3c(=O)cc(C(F)(F)F)n(C)c3=O)cc12 [Compound 26, 1-methyl-3-[3-(4-methyl-3-thienyl)-1,2-benzisothiazol-5-yl]-6-(trifluoromethyl)uracil]
[1]; 0.0320 kg/ha into flood water
  herbicide rating (0-9) SAGPY: 0.0
[1]; 0.0620 kg/ha into flood water
  herbicide rating (0-9) SAGPY: 0.0
[1]; 0.1250 kg/ha into flood water
  herbicide rating (0-9) SAGPY: 0.0
[2]; Rate 0.0620 kg/ha
  GALAP preemergence herbicidal rating: 7.0
[2]; Rate 0.1250 kg/ha
  GALAP preemergence herbicidal rating: 7.0
[2]; Rate 0.2500 kg/ha
  GALAP preemergence herbicidal rating: 9.0
[3]; Rate 0.0620 kg/ha
  ABUTH preemergence herbicidal rating: 4.0
[3]; Rate 0.1250 kg/ha
  ABUTH preemergence herbicidal rating: 9.0
[3]; Rate 0.2500 kg/ha
  ABUTH preemergence herbicidal rating: 9.0
[4]; rate 0.0320 kg/ha
  herbicidal rating, CYPSE: 0.0
[4]; rate 0.1250 kg/ha
  herbicidal rating, CYPSE: 3.0
[5]; Rate 0.0620 kg/ha
  ZEAMX preemergence herbicidal rating: 2.5
[5]; Rate 0.1250 kg/ha
  ZEAMX preemergence herbicidal rating: 3.5
[5]; Rate 0.2500 kg/ha
  ZEAMX preemergence herbicidal rating: 6.5
[6]; Rate 0.0620 kg/ha
  TRZAWR preemergence herbicidal rating: 2.0
[6]; Rate 0.1250 kg/ha
  TRZAWR preemergence herbicidal rating: 3.0
[6]; Rate 0.2500 kg/ha
  TRZAWR preemergence herbicidal rating: 7.0
[7]; 0.0320 kg/ha into flood water
  herbicide rating (0-9) CYPIR: 9.0
[7]; 0.0620 kg/ha into flood water
  herbicide rating (0-9) CYPIR: 9.0
[7]; 0.1250 kg/ha into flood water
  herbicide rating (0-9) CYPIR: 9.0
[8]; 0.0320 kg/ha into flood water
  herbicide rating (0-9) CYPSE: 7.0
[8]; 0.0620 kg/ha into flood water
  herbicide rating (0-9) CYPSE: 7.0
[8]; 0.1250 kg/ha into flood water
  herbicide rating (0-9) CYPSE: 7.0
[9]; 0.0320 kg/ha into flood water
  herbicide rating (0-9) ORYSAT (rice tolerance): 4.0
[9]; 0.0620 kg/ha into flood water
  herbicide rating (0-9) ORYSAT (rice tolerance): 5.0
[9]; 0.1250 kg/ha into flood water
  herbicide rating (0-9) ORYSAT (rice tolerance): 6.0
[10]; Rate 0.0620 kg/ha
  GLXMAW preemergence herbicidal rating: 1.0
[10]; Rate 0.1250 kg/ha
  GLXMAW preemergence herbicidal rating: 3.0
[10]; Rate 0.2500 kg/ha
  GLXMAW preemergence herbicidal rating: 4.5
[11]; 0.0320 kg/ha into flood water
  herbicide rating (0-9) ECHORC: 7.0
[11]; 0.0620 kg/ha into flood water
  herbicide rating (0-9) ECHORC: 9.0
[11]; 0.1250 kg/ha into flood water
  herbicide rating (0-9) ECHORC: 9.0
[12]; rate 0.0320 kg/ha
  Postemergence herbicidal rating, TRZAWR: 3.5
[12]; rate 0.0620 kg/ha
  Postemergence herbicidal rating, TRZAWR: 4.5
[13]; 0.0320 kg/ha into flood water
  herbicide rating (0-9) MOOVA: 4.0
[13]; 0.0620 kg/ha into flood water
  herbicide rating (0-9) MOOVA: 4.0
[13]; 0.1250 kg/ha into flood water
  herbicide rating (0-9) MOOVA: 6.0
[14]; rate 0.0320 kg/ha
  Postemergence herbicidal rating, AMBEL: 9.0
[14]; rate 0.0620 kg/ha
  Postemergence herbicidal rating, AMBEL: 9.0
[15]; rate 0.0320 kg/ha
  Postemergence herbicidal rating, CHEAL: 7.0
[15]; rate 0.0620 kg/ha
  Postemergence herbicidal rating, CHEAL: 9.0
[16]; rate 0.0320 kg/ha
  Postemergence herbicidal rating, CASOB: 4.0
[16]; rate 0.0620 kg/ha
  Postemergence herbicidal rating, CASOB: 9.0

## Cn1c(C(F)(F)F)cc(=O)n(-c2ccc3snc(-c4ncccn4)c3c2)c1=O [Compound 12, 1-methyl-3-[3-(2-pyrimidinyl)-1,2-benzisothiazol-5-yl]-6-(trifluoromethyl)uracil]
[1]; 0.1250 kg/ha into flood water
  herbicide rating (0-9) SAGPY: 0.0
[2]; Rate 0.2500 kg/ha
  GALAP preemergence herbicidal rating: 9.0
[3]; Rate 0.2500 kg/ha
  ABUTH preemergence herbicidal rating: 9.0
[4]; rate 0.1250 kg/ha
  herbicidal rating, CYPSE: 7.0
[5]; Rate 0.2500 kg/ha
  ZEAMX preemergence herbicidal rating: 8.5
[6]; Rate 0.2500 kg/ha
  TRZAWR preemergence herbicidal rating: 9.0
[7]; 0.1250 kg/ha into flood water
  herbicide rating (0-9) CYPIR: 9.0
[8]; 0.1250 kg/ha into flood water
  herbicide rating (0-9) CYPSE: 0.0
[9]; 0.1250 kg/ha into flood water
  herbicide rating (0-9) ORYSAT (rice tolerance): 2.0
[10]; Rate 0.2500 kg/ha
  GLXMAW preemergence herbicidal rating: 9.0
[11]; 0.1250 kg/ha into flood water
  herbicide rating (0-9) ECHORC: 1.0
[12]; rate 0.0620 kg/ha
  Postemergence herbicidal rating, TRZAWR: 6.0
[13]; 0.1250 kg/ha into flood water
  herbicide rating (0-9) MOOVA: 2.0
[14]; rate 0.0620 kg/ha
  Postemergence herbicidal rating, AMBEL: 9.0
[15]; rate 0.0620 kg/ha
  Postemergence herbicidal rating, CHEAL: 9.0
[16]; rate 0.0620 kg/ha
  Postemergence herbicidal rating, CASOB: 9.0
